Source: EP0155934B1, “Pharmaceutical compositions for treating androgen-related disorders in humans” (Duke University, priority 1983, dated 1985)

Legend:
[1] = system: 5α-Reductase; experiment: Preincubation of enzyme with inhibitor and NADPH, tenfold dilution, then assay for 5a-reductase activity; assay type: biochemical; conditions: for manner of combination with / inactivation of the enzyme: in the presence of the co-factor NADPH; for Picomol Testosterone reduced/mg protein in 45 min + SEM: testosterone 5x10^-8, NADPH 5x10^-4
Excerpt: (§1) The compounds of the present invention represent an important advance over progestrone and derivatives thereof since they are irreversible inhibitors of the enzyme 5a-reductase. Employing the assay of R. J. Moore and J. D. Wilson [Methods in Enzymology, Vol. XXXVI, Academic Press, N.Y., Ed. W. O'Malley and G. Hardman, p.

[2] = topical administration of a 0.5% solution in aqueous ethanol; cited from earlier work
[3] = system: cell-culture preparations of human prostate; conditions: thereby inhibiting growth of the tissue; cited from earlier work
[4] = system: enzyme 5a-reductase; experiment: 5a-reductase inhibition, assay of R. J. Moore and J. D. Wilson; assay type: biochemical; conditions: compared with progesterone
Excerpt: as §1

[5] = system: 5a-reductase; experiment: Time course of inactivation of 5a-reductase after incubation with NADPH and inhibitor (saturation kinetics); assay type: biochemical; conditions: Fig. 1
Description: The time course of inactivation of 5a-reductase following incubation of the enzyme with NADPH and 17a-acetoxy-6-methyleneprogesterone is shown in Fig. 1.
When these rate constants are plotted (as the t 1/2's) against the reciprocal of the inhibitor concentrations, a straight line i obtained with a positive intercept on the y-axis, indicating a saturation phenomenon (Fig. 2). […] The rate constant for this step (kcat) is 4.8 x 10-^3 s-'.

| Structure (SMILES) | manner of combination with / inactivation of the enzyme [1] | enzyme inactivation on preincubation ([1]; similar preincubation of the enzyme (with NADPH)) | males with acne with an important decrease in sebum secretion [2] | inhibition of the enzyme [3] | potency as inhibitors of the enzyme [4] | Picomol Testosterone reduced/mg protein in 45 min + SEM ([1]; A: preincubation 15 min with inhibitor 5x10^-7 M and NADPH 6x10^-5, assay: inhibitor 5x10^-8 M, n = 6) | Picomol Testosterone reduced/mg protein in 45 min + SEM ([1]; B: preincubation 15 min without inhibitor, NADPH 6x10^-5, assay: inhibitor 5x10^-8 M, n = 6) | Picomol Testosterone reduced/mg protein in 45 min + SEM ([1]; C: preincubation 15 min without inhibitor and without NADPH, assay: inhibitor 5x10^-8 M, n = 6) | Picomol Testosterone reduced/mg protein in 45 min + SEM ([1]; D: preincubation 15 min with inhibitor 5x10^-7 M, no NADPH, assay: inhibitor 5x1-^-8 M, n = 6) | Picomol Testosterone reduced/mg protein in 45 min + SEM ([1]; F: no preincubation, assay: inhibitor 5x10^-8 M, n = 4) | enzyme activity lost ([1]; preincubation with inhibitor and NADPH, diluting tenfold, assaying for 5a-reductase activity) [%] | time course of inactivation of the enzyme [5] |
| --- | --- | --- | --- | --- | --- | --- | --- | --- | --- | --- | --- | --- |
| CC(=O)[C@H]1CC[C@H]2[C@@H]3CCC4=CC(=O)CC[C@]4(C)[C@H]3CC[C@]12C [Progesterone, reference compound] | competitive and reversible | does not result in enzyme inactivation | 45/53 | strongly inhibits | – | – | – | – | – | – | – | – |
| C=C1C[C@@H]2[C@H](CC[C@@]3(C)[C@H]2CC[C@]3(OC(C)=O)C(C)=O)[C@@]2(C)CCC(=O)C=C12 [17a-acetoxy-6-methyleneprogesterone, 17-Acetoxy-6-methylene-4-pregnen-3,20-dione] | irreversible | – | – | – | equipotent with progesterone | 0.71±0.018n = 6 Picomol Testosterone reduced/mg protein in 45 min | 3.0 ±0.26n = 6 Picomol Testosterone reduced/mg protein in 45 min | 2.83±0.09n = 6 Picomol Testosterone reduced/mg protein in 45 min | 2.63±0.18n = 6 Picomol Testosterone reduced/mg protein in 45 min | 3.14±0.20n = 4 Picomol Testosterone reduced/mg protein in 45 min | 75 | pseudo first-order kinetics |
| C=C1C[C@H]2[C@@H]3CC[C@H](C(C)=O)[C@@]3(C)CC[C@@H]2[C@@]2(C)CCC(=O)C=C12 [6-methyleneprogesterone] | – | – | – | – | equipotent with progesterone | – | – | – | – | – | – | – |
